The source made the active and inactive calls.
Key:
Type in all cases: functional
[1] = target: T1, Apoptotic protease-activating factor 1 (Homo sapiens, UniProt O14727)
T1 sequence (O14727 whole entry): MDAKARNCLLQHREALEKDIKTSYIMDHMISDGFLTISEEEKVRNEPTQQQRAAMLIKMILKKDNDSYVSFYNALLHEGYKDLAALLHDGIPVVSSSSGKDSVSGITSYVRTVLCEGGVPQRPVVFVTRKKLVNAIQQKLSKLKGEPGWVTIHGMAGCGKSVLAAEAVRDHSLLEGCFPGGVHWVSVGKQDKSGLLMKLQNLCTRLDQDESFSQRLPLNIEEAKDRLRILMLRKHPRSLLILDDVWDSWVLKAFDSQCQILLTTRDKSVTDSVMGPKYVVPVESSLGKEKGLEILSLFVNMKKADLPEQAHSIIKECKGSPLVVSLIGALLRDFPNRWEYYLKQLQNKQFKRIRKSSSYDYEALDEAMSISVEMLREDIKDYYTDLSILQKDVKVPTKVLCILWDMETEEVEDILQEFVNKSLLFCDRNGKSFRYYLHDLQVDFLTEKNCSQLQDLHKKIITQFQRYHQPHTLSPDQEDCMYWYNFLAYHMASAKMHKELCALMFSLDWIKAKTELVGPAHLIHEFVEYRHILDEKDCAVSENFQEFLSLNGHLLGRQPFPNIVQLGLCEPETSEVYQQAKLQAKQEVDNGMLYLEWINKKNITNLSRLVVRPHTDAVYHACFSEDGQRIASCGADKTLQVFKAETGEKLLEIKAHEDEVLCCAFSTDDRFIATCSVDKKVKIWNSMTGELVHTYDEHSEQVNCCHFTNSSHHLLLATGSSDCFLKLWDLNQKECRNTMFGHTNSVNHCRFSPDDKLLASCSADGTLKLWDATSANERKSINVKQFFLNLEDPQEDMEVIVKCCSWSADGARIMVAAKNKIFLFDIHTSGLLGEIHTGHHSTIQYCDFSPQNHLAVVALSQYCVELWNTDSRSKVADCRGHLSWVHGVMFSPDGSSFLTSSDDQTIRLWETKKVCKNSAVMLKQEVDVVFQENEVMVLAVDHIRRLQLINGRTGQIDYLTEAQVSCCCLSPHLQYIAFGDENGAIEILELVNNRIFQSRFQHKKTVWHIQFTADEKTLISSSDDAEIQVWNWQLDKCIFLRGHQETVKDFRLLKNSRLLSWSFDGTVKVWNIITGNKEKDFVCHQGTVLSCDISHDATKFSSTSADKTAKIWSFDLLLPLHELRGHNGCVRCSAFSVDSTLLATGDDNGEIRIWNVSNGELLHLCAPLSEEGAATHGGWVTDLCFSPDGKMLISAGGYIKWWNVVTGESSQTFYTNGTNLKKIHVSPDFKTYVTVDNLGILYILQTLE

[2] = target: T2, Replicative DNA helicase DnaB (Mycobacterium tuberculosis, UniProt P9WMR3); assay: DnaB intein splicing inhibitors, dose response, biochemical, cell-free fluorescence (AID 449749)
T2 sequence (P9WMR3 whole entry): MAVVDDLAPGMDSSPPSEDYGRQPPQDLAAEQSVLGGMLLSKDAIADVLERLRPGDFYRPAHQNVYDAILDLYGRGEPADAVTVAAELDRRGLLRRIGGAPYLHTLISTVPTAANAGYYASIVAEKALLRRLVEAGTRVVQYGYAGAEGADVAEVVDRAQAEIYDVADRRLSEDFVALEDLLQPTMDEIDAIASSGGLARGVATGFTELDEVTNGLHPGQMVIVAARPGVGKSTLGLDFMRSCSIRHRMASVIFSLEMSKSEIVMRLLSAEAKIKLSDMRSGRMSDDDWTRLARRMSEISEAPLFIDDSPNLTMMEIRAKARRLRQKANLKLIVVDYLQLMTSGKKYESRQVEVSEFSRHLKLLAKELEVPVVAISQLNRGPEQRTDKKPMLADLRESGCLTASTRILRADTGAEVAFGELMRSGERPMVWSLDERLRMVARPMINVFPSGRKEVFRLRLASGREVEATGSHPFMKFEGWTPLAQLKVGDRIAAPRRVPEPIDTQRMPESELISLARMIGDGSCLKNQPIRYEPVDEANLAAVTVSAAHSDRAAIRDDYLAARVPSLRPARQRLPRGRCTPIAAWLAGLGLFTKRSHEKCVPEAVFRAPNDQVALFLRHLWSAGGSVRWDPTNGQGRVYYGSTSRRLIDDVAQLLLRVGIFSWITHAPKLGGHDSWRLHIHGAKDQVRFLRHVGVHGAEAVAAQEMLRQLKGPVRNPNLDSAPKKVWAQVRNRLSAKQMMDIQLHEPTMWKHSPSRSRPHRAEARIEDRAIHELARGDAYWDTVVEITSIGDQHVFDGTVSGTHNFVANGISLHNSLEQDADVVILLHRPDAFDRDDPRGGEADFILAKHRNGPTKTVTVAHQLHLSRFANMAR

Protein RecA = target: T3, Protein RecA (Mycobacterium tuberculosis, UniProt P9WHJ3); assay: Fluorescence Cell-Free Homogeneous Dose Retest to Identify Inhibitors of RecA-Intein Splicing Activity. [Related pubchem assays (depositor defined):AID2097, AID2223, AID489010, AID492950]
T3 sequence (P9WHJ3 whole entry): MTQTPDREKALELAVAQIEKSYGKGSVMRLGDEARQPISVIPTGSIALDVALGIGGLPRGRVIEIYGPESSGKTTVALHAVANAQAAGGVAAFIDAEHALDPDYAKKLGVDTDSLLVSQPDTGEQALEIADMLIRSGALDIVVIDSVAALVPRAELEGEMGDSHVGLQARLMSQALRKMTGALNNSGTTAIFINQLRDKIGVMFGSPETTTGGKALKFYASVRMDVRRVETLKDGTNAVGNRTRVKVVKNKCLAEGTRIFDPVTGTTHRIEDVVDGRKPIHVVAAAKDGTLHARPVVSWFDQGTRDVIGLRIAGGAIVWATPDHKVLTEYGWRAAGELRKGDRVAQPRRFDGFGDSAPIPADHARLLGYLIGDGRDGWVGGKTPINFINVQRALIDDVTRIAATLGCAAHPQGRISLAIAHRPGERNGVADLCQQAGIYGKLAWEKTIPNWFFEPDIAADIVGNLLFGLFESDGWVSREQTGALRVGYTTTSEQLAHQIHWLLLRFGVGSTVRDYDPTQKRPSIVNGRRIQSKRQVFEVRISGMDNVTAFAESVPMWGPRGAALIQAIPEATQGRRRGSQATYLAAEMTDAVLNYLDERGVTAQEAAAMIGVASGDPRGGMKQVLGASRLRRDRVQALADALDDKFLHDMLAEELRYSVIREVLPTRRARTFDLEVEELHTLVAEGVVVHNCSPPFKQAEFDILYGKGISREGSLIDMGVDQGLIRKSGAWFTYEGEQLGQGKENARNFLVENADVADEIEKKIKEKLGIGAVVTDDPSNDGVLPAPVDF

Structure (SMILES) | IC50 [1] | AC50 [2] | EC50 (Protein RecA)
CC[C@@H](C)[C@H](CNC)NC[C@@H](Cc1cccc2ccccc12)NCCc1cccc(C(F)(F)F)c1 | 44.1 µM (active) | – | –
Cc1ccc(S(=O)(=O)/N=C2\C=C(Nc3cccc(C(=O)O)c3)C(=O)c3ccccc32)cc1 | 7.32 µM (active) | 0.516 µM (active) | 0.266 µM (active)
O=[N+]([O-])c1c(Nc2ccccn2)cc(Cl)c2nonc12 | – | 1.79 µM (active) | 1.02 µM (active)
Cc1ccc(C(=O)NC2(O)C(=O)c3ccccc3C2=O)cc1C | 5.13 µM (active) | 6.24 µM (active) | 15.9 µM (active)

Reference: ChEMBL document CHEMBL1201862, “PubChem BioAssay data set” (2004)
